Several values for one entry are separate records, joined by “and”; a condition that tells them apart may be missing. Identical values can stand only once.

This assay concerns S. typhi GFP reporter counter-screen, fluorescence, 4 h. As to the kind of experiment: inhibitors in S. typhi counter-screen strain, dose response, counter-screen for PhoP regulon inhibitor project, fluorescence, 4 h (AID 2384).
As for `Nc1nonc1C(=O)N/N=C/c1cc(Br)ccc1O`, the IC50 was 14 µM.
For `CC[C@H]1OC(=O)[C@H](C)[C@@H](O[C@H]2C[C@@](C)(OC)[C@@H](O)[C@H](C)O2)[C@H](C)[C@@H](O[C@@H]2O[C@H](C)C[C@H](N(C)C)[C@H]2O)[C@](C)(O)C[C@@H](C)[C@@H]2N[C@@H](COCCOC)O[C@H]([C@H]2C)[C@]1(C)O` the value was 5.52 µM; for `CCOc1cccc(CNCCc2c(C)[nH]c3ccc(OC(F)(F)F)cc23)c1O`, 31.2 µM; for `NCCCC[C@H]1CN=C(N)N1CCC12CC3CC(CC(C3)C1)C2`, 86.4 µM.
In the case of `CC(NCc1ccc(Cl)cc1)C(O)c1ccccc1` (centres undefined), the IC50 was 42.8 µM.
Regarding `CC1(C)CC(N2CCN(C(c3ccccc3)c3ccccc3)CC2)=CC(=[N+]2CCCCC2)C1`, the IC50 was 63.2 µM.
Regarding `NC(=O)c1ccc(N=C2C(=O)Nc3ccc([N+](=O)[O-])cc32)cc1`, the IC50 is 72.8 µM.
Turning to `CC(=O)NC(c1ccc2ccccc2c1)c1ccc2cccnc2c1O` (centres undefined), the IC50 was 66.7 µM.
For `O=C(c1ccc([N+](=O)[O-])o1)N1CCOCC1`, the half-inhibitory concentration (IC50) was 81.8 µM.
As to `Cc1ccccc1S(=O)(=O)NNC(=O)C(=O)NNc1ccccn1`, the IC50 was 36.6 µM.
In the case of `CNCCCN1c2ccccc2CCc2ccccc21`, the IC50 is 77.6 µM.
Under `COc1cc(/C=N/N=C(N)N)ccc1OCc1ccc(Cl)cc1` stands 46.8 µM.
For `O=C1c2c(O)ccc(O)c2C(=O)c2c(NCCNCCO)ccc(NCCNCCO)c21` the value was 86.5 µM; for `CCOC(=O)N1CCN(CCC(=O)c2ccc(Cl)cc2)CC1`, 66.6 µM; for `O=C(c1ccccc1)c1c2c(cc3sc4ccccc4[n+]13)-c1cccc3cccc-2c13`, 55.4 µM.
For `Cc1ccccc1C(=O)Nc1cccc(C(=O)N/N=C/c2cc(Cl)cc([N+](=O)[O-])c2O)c1` the value was 32.9 µM; for `O=C(Cc1cccs1)N/N=C\c1ccc([N+](=O)[O-])s1`, 50.9 µM; for `O=C(NC(=S)NNC(=O)c1ccco1)c1ccc(Br)cc1`, 76.2 µM.
For `O=C(Nc1nnc(C2COc3ccccc3O2)o1)c1ccc(F)cc1` (centres undefined), the IC50 is 37.8 µM.
Regarding `C#CCOCCOCCOCCNc1nc(N2CCN(C(=O)C(Cc3ccc(O)cc3)n3cc(C(N)CC(C)C)nn3)CC2)nc(N2CCN(C(=O)C(Cc3cc4ccccc4[nH]3)n3cc(C(N)Cc4ccc(O)cc4)nn3)CC2)n1` (centres undefined), the IC50 is 37.7 µM.
On to `CCCCCCCC(=O)N/N=C/c1ccc([N+](=O)[O-])o1`, for which the IC50 is 40.2 µM.
For `COc1ccc(/C=C/c2cc[n+](C(=O)Cc3ccccc3)cc2)cc1` the value was 65.3 µM; for `O=C(COc1ccc(Br)cc1CNCCc1ccccc1)NCc1ccccc1`, 105 µM; for `Oc1cccc(Nc2nc(NCC3CCCO3)c3ccccc3n2)c1` (centres undefined), 38.1 µM.
For `COc1ccc(/C=C/c2cc(-c3ccc(C)cc3)o[n+]2C)cc1`, the IC50 was 42.7 µM.
Under `N=c1c2c(n(Cc3ccc(Cl)cc3Cl)c3c1CCC3)CCCC2` stands 37.5 µM; under `CCCCCCCNC(=O)C1(CC2CC(c3cccc(Br)c3)=NO2)CCNCC1` (centres undefined), 39.8 µM.
As to `Cc1c(N=Cc2cc(Br)cc(Br)c2O)cccc1C(=O)O`, the IC50 was 39.5 µM.
Under `O=C(Nc1ccccc1)Nc1nccs1` stands 96 µM; under `O=C(C[n+]1cc(-c2ccc(Cl)c(Cl)c2)n2c1CCC2)N1c2ccccc2Sc2ccccc21`, 19.4 µM; under `N=c1n(CCN2CCCCC2)c2ccccc2n1CC(O)c1ccc(Cl)c(Cl)c1` (centres undefined), 19.8 µM.
Regarding `O=C(NNC(=S)NC(=O)c1ccco1)c1ccc(F)cc1`, the 50% inhibitory concentration (IC50) is 130 µM.
For `Oc1c(Br)cc(Br)cc1C=NCc1ccccc1`, the 50% inhibitory concentration (IC50) was 40.4 µM.
Under `COc1cc(/C=C2/C(=O)NN(c3ccc(F)cc3)C2=O)cc([N+](=O)[O-])c1O` stands 62.6 µM; under `CCCCn1c(NS(=O)(=O)c2ccc(C)cc2)c(S(=O)(=O)c2ccccc2)c2nc3ccccc3nc21`, 9.71 µM.
As for `CN(C)CC/C=C1/c2cc(F)ccc2Sc2ccc(Cl)cc21`, the half-inhibitory concentration (IC50) was 34.3 µM.
As for `CCOC(=O)N1CCN(CCC(=O)c2ccc(Br)cc2)CC1`, the IC50 is 82.3 µM.
Regarding `C[n+]1c2n(c3ccccc31)N=C(c1ccc(-c3ccccc3)cc1)CS2`, the IC50 was 26.4 µM.
For `O=C(/C=C(\O)c1ccccc1)C(=O)NNC(=O)c1ccccc1` the value was 44.5 µM; for `OCCN1CCN(CCCN2c3ccccc3Sc3ccc(C(F)(F)F)cc32)CC1`, 75.1 µM; for `O=C(CCc1ccccc1)NNC(=O)c1ccccn1`, 57.8 µM.
Regarding `O=C(CN1CC[n+]2c(-c3cccs3)csc21)c1ccc(-c2ccccc2)cc1`, the IC50 is 20.3 µM.
In the case of `Oc1[nH]c2ccccc2c1N=NC(=S)N1CCOCC1`, the IC50 was 21.2 µM.
For `CCCNC(=O)c1cn(CC)c2cc(N3CCN(C)CC3)c(F)cc2c1=O` the value was 30.6 µM; for `Cc1cccc(Nc2nc(NCc3ccco3)c3ccccc3n2)c1`, 14 µM; for `CCN1/C(=C/c2cc[n+](C)cc2)C=Cc2cc(C)ccc21`, 39.4 µM.
Consider `Cc1nc2ccccn2c1C(=O)N/N=C/c1ccc([N+](=O)[O-])o1`, for which the IC50 is 42.6 µM.
Consider `N=C(N)c1ccc(/C=C/c2ccc(C(=N)N)cc2O)cc1`, for which the IC50 is 10.5 µM.
Turning to `CN1CCN(C2=Cc3ccccc3Sc3cc(F)ccc32)CC1`, the IC50 is 46.7 µM.
As for `COc1cc(CNCCc2c[nH]c3ccccc23)ccc1OCc1ccc(F)cc1`, the IC50 is 37.6 µM.
In the case of `O=C(NC(=S)NNC(=O)c1ccccc1O)c1ccco1`, the IC50 was 25.8 µM.
Under `OCCN1CCN(C2Cc3cc(Cl)ccc3Sc3ccc(Cl)cc32)CC1` (centres undefined) (tested in a mixture with another compound) stands 25.9 µM; under `Clc1ccc2c(c1)C(N1CCNCC1)Cc1ccccc1S2` (centres undefined), 35.1 µM; under `Cc1cc(C(C)(C)CC(C)(C)C)ccc1OCCOCC[N+](C)(C)Cc1ccccc1`, 16.8 µM.
On to `Cc1nonc1C(=O)N/N=C/c1ccc(O)cc1O`, for which the IC50 is 20.3 µM.
For `O=C(C[n+]1cnn(CC(=O)c2ccc(Cl)cc2Cl)c1)c1ccc([N+](=O)[O-])cc1`, the IC50 is 36.1 µM.
As to `CCOc1ccc(/C=N/NC(=O)c2[nH]ncc2Br)c(O)c1`, the IC50 was 43.7 µM.
On to `CCCCCOc1ccc(CSC2=NCCN2)cc1[N+](=O)[O-]`, for which the IC50 is 32 µM.
For `N#C/C(N=Nc1ccccc1O)=N\Nc1ccccc1O`, the 50% inhibitory concentration (IC50) was 20.2 µM.
Consider `Oc1ccc(C[C@@H]2CNCCN2CCC23CC4CC(CC(C4)C2)C3)cc1`, for which the IC50 was 40.6 µM.
With `CCCCOc1ccc(NC2=NC3(CCCC3)N=C(N)N2)cc1`, the IC50 was 94.8 µM.
As for `CN1CC=C(/C=C/c2ccc(-c3ccccc3)cc2)CC1`, the 50% inhibitory concentration (IC50) was 23.7 µM.
Take `CCCCCCCCCCCCCCCCn1cc[n+](C)c1`: the IC50 was 34.8 µM.
As to `CN1CC(C(=O)c2ccc(Cl)cc2)C(c2ccc(Cl)cc2Cl)C1` (centres undefined), the IC50 was 23.6 µM.
As to `O=C(CC(=O)c1cc(Cl)ccc1O)c1ccccc1`, the IC50 is 26.8 µM.
For `O/N=C/C1=C(Cl)c2ccccc2CC1`, the IC50 was 93.4 µM.
For `O=c1[nH]c(-c2ccccn2)nc(C(F)(F)F)c1Br` the value was 51.3 µM.
Take `CN1CCN(CCCN2c3ccccc3Sc3ccc(Cl)cc32)CC1`: the IC50 is 41.7 µM and 23.8 µM.
Under `Cc1ccc(C(=O)NCCN2C3=NC[C@@H](Cc4ccccc4)N3C[C@H]2Cc2ccc(O)cc2)cc1Br` stands 35.8 µM; under `CCOC(=O)Cn1c(=N)n(CCOc2ccc3ccccc3c2)c2ccccc21`, 37.2 µM.
For `COc1cc(CNC2CCCC2)cc(Cl)c1OCc1ccccc1Cl` the value was 38 µM.
Take `CCn1cc(C(=O)O)c(=O)c2cc(F)c(N3CCN(C(=S)NC(=O)c4ccccc4C)CC3)cc21`: the IC50 was 49.3 µM.
Take `CN(C)CCCN(C(=O)CCc1ccccc1)c1nc2ccc(Br)cc2s1`: the IC50 was 32.8 µM.
For `O=C(CN1CC(c2ccccc2)CC1=O)N/N=C/c1cc(Br)ccc1O` (centres undefined), the concentration for half-maximal inhibition (IC50) is 40.2 µM.
As to `COc1ccc2sc(N(CCCN(C)C)C(=O)c3ccc(S(=O)(=O)N4CCc5ccccc5C4)cc3)nc2c1`, the IC50 is 122 µM.
For `Clc1cccc(/C=N\Nc2nccs2)c1` the value was 15.8 µM; for `O=[N+]([O-])c1ccc(/C=[N+](\[O-])CCO)o1`, 88.9 µM; for `CCN1/C(=C/C(C)=C/c2sc3ccccc3[n+]2CC)Sc2ccccc21`, 3.1 µM.
On to `O=c1cc(-c2ccccc2)cc(-c2ccccc2)n1O`, for which the IC50 is 32.3 µM.
As for `COc1c(N2CCN(C(=S)NC3CC4CCC3C4)C(C)C2)c(F)cc2c(=O)c(C(=O)O)cn(C3CC3)c12` (centres undefined), the IC50 was 44.1 µM.
Under `O=C(/C=C/c1ccccc1Cl)Nc1cccc(O)c1` stands 49.8 µM; under `CCOc1cc(CNCCCN2CCOCC2)cc(Br)c1OCC(=O)Nc1cccc(C(F)(F)F)c1`, 47.1 µM.
In the case of `Cc1cccc2c1Sc1ccc(Cl)cc1CC2N1CCNCC1` (centres undefined), the IC50 was 71.8 µM.
For `CCn1cnc2cc(NCc3ccc(Br)cc3)ccc21` the value was 138 µM; for `Clc1ccc(-c2cc(C3CCNCC3)[nH]n2)c(Cl)c1`, 18.2 µM.
In the case of `COc1cc(Br)cc(C=Nc2cccc(C(F)(F)F)c2)c1O`, the IC50 is 73.8 µM.
Under `NC1=NC[C@@H](Cc2ccc(O)cc2)N1CCc1cc(C(F)(F)F)cc(C(F)(F)F)c1` stands 41.7 µM; under `OC(CNCC1CCCO1)Cn1c2ccc(Cl)cc2c2cc(Cl)ccc21` (centres undefined), 23.7 µM; under `Oc1ccc(/C=N/Nc2nccnc2Cl)c(O)c1`, 30.5 µM.
Under `COc1cc(C)c(Cc2cnc(N)nc2N)cc1OC` stands 5.98 µM.
Under `OC1CCCN(Cc2ccc3ccc4cccc5ccc2c3c45)C1` (centres undefined) stands 59.9 µM; under `O=c1[nH][nH]c(-c2ccccc2O)c1C(C[N+](=O)[O-])c1ccc(Br)cc1` (centres undefined), 63 µM.
In the case of `CCCCCCCCNC(C)C(O)c1ccc(SC(C)C)cc1` (centres undefined), the half-inhibitory concentration (IC50) was 30.7 µM.
As for `O=C(N/N=C/c1ccccn1)c1ccc(Br)o1`, the IC50 was 45.1 µM.
Turning to `COc1ccc(C(=O)NC(=S)NNC(=O)CCc2ccccc2)cc1`, the IC50 was 138 µM.
For `O=c1ccc2cc3c([nH]c4ccc(Br)cc43)oc-2c1O` the value was 18.2 µM; for `Cc1[nH]c2ccc(C(=O)Nc3ccncc3)cc2c1C`, 90.8 µM.
`O=C(Oc1c(Cl)cc(Cl)c2cccnc12)c1cccc([N+](=O)[O-])c1`: the IC50 is 9.26 µM.
Take `Nc1nc(Nc2cccc(F)c2)nc2ccccc12`: the half-inhibitory concentration (IC50) was 22.5 µM.

The values above are taken from PubChem BioAssay AID2384 (Southern Research Specialized Biocontainment Screening …, 2010).
